Results published in article PMC10518658, “Dual activity of indolin-2-ones containing an arylidene motif: DNA and BSA interaction” (RSC Advances, 2023).

Biological target: T1, bovine serum albumin (BSA) (Bos taurus, UniProt P02769)
T1 construct: gene ALB
Assay: fluorescence emission titration (BSA quenching, excitation […] nm), double-log plot; value is Ka, n = […]
Assay type: binding
Details: read-out: fluorescence emission titration (BSA quenching, excitation 287 nm), double-log p (converted)

T1 sequence (P02769 25-607): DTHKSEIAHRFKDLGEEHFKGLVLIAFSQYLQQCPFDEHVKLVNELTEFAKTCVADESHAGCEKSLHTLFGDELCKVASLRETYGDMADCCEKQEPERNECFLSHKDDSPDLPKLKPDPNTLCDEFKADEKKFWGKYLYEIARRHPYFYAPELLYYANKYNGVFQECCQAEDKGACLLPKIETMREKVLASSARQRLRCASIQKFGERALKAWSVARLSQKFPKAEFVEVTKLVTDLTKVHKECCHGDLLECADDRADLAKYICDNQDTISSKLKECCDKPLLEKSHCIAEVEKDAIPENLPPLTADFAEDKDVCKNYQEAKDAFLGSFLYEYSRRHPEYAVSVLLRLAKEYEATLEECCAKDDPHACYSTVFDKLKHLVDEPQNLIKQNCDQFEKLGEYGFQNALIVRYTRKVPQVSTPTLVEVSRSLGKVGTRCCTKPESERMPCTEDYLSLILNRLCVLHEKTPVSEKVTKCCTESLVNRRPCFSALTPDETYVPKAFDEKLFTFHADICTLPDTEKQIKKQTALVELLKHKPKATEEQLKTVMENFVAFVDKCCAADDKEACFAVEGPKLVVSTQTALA

In the case of C=CCN1C(=O)C(=CC(=O)c2cccc(N)c2)c2ccccc21 [4d, 1-Allyl-3-(2-(3-aminophenyl)-2-oxoethylidene)indolin-2-one], the Kd was 164 nM.
